According to patent publication US10800772B2 (Gilead Sciences, Inc., priority 2016, dated 2020):
Read-outs that look alike come from different tables or passages of the source.

What was measured:
[1] = in vitro; conditions: human, microsomes
[2] = system: HIV-IIIb IN T174I DE; assay: Antiviral assay in MT4 cells, HIV-IIIb IN T174I DE virus (from dose escalation passaging); type: cell-based, HIV-1; conditions: Human immunodeficiency virus 1, IIIB, MT4, 120 h, read-out: T174I DE EC50, MT4 cells, HIV-IIIb IN T174I DE (dose escalation), 5 days, CellTiter-Glo
In short: (§1)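 HIV-IIIb at 0.004 m.o.i., 3 h pre-infection of MT4 cells at 37 °C; 2000 cells/well in RPMI 1640 + 10% FBS with 3-fold compound dilutions, 10 conc., quadruplicate. 5-day incubation, CellTiter-Glo readout. EC50 = 50% luminescence decrease.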

[3] = system: HIV-IIIb (wildtype); assay: Antiviral assay in MT4 cells, HIV-IIIb wildtype; type: cell-based, HIV-1; conditions: read-out: WT EC50
In short: as §1

[4] = system: HIV-IIIb IN T174I BT; assay: Antiviral assay in MT4 cells, HIV-IIIb IN T174I BT virus (from viral breakthrough); type: cell-based, HIV-1; conditions: Human immunodeficiency virus 1, IIIB, MT4, 120 h, read-out: T174I BT EC50, MT4 cells, HIV-IIIb IN T174I BT (viral breakthrough), 5 days, CellTiter-Glo
In short: as §1

[5] = Hum MS stability (human microsomal stability half-life); conditions: human microsomes
[6] = Human immunodeficiency virus 1, 120 h, MT4 cells, HIV-IIIb wildtype, 5 days, CellTiter-Glo
[7] = Human immunodeficiency virus 1, IIIB, MT4, 120 h

| SMILES | half-life [1] [h] | EC50 [2] [nM] | EC50 [3, 6] [nM] | EC50 [4] [nM] | half-life [5] [h] | EC50 [3, 7] [nM] |
| --- | --- | --- | --- | --- | --- | --- |
| Cc1cc2nc(-c3ccc4c(c3)c(C3CCN(C5CC5)CC3)nn4C)sc2c(-c2ccc(Cl)cc2)c1[C@H](OC(C)(C)C)C(=O)O [Compound 128, (S)-2-(tert-butoxy)-2-(7-(4-chloro-phenyl)-2-(3-(1-cyclopropylpiperidin-4-yl)-1-methyl-1H-indazol-5-yl)-5-methylbenzo[d]thiazol-6-yl) acetic acid] | 4.03 | 511 | 4 | 292 |  |  |
| Cc1cc2nc(-c3ccc4c(n3)c(C3CCN(C5COC5)CC3)nn4C)sc2c(-c2ccc(Cl)cc2)c1[C@H](OC(C)(C)C)C(=O)O [Compound 175, (S)-2-(tert-butoxy)-2-(7-(4-chloro-phenyl)-5-methyl-2-(1-methyl-3-(1-(oxetan-3-yl)piperidin-4-yl)-1H-pyrazolo [4,3-b]pyridin-5-yl)benzo[d]thiazol-6-yl) acetic acid] |  | 252 |  | 122 | 5.95 | 3 |
| Cc1cc2nc(-c3ccc4c(c3)c(C3CCN(C5COC5)CC3)nn4C)sc2c(-c2ccc(Cl)cc2)c1[C@H](OC(C)(C)C)C(=O)O [Compound 1, (S)-2-(tert-butoxy)-2-(7-(4-chlorophenyl)-5-methyl-2-(1-methyl-3-(1-(oxetan-3-yl)piperidin-4-yl)-1H-indazol-5-yl)benzo[d]thiazol-6-yl)acetic Acid] |  | 315 | 5 | 143 | 5.83 |  |
| Cc1cc2nc(-c3ccc4c(n3)c(C3CCN(CCN(C)C)CC3)nn4C)sc2c(-c2ccc(Cl)cc2)c1[C@H](OC(C)(C)C)C(=O)O [Compound 173, (S)-2-(tert-butoxy)-2-(7-(4-chloro-phenyl)-2-(3-(1-(2-(dimethylamino)ethyl)piperidin-4-yl)-1-methyl-1H-pyrazolo[4,3-b]pyridin-5-yl)-5-methylbenzo[d]thiazol-6-yl) acetic acid] |  | 89 |  | 45 | 1.2 | 2 |
